Experimental data taken from US5554644A, “Tachykinin (NK2) antagonists” (Warner-Lambert Company, priority 1994, dated 1996).

Experiments:
NK2 receptor = biological target: T1, NK2 receptor (Mesocricetus auratus, UniProt P51144); test: NK2 receptor binding: binding of [^125 I]-iodohistidyl neurokinin A (0.1 nM) to hamster urinary bladder membranes
T1 construct: to hamster urinary bladder membranes; from tissue; host or cells: hamster urinary bladder membranes
T1 sequence (P51144 1-384): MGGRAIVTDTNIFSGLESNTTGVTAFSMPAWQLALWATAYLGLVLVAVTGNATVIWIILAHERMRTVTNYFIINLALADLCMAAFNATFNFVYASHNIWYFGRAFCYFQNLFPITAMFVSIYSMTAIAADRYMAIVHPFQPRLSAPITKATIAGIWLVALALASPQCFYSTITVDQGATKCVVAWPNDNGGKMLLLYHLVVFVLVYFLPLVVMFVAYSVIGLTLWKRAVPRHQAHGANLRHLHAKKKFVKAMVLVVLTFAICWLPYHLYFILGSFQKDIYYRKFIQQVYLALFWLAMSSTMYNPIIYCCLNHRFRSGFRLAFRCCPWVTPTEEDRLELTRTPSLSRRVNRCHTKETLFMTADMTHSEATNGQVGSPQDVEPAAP
Method: Some of the compounds of the invention were evaluated in tachykinin binding assays.
For the NK2 receptor-measurement of the binding of [^125 I]-iodohistidyl neurokinin A (0.1 nM) to hamster urinary bladder membranes. See Buck and Shatzer, Life Sci., 42:2701 (1988).

NK1 receptor = settings: cited from earlier work; for antagonists at the NK1 receptor: nonpeptide antagonists
NK2 receptors = settings: cited from earlier work

Compound: COc1cccc(COC(=O)NC(Cc2c[nH]c3ccccc23)C(=O)NC(C)(Cc2ccccc2)C(O)CCCO)c1OC (single isomer, unassigned) [Compound XX, Carbamic acid, [2-[[2,5-dihydroxy-1-methyl-1-(phenylmethyl)pentyl]amino]-1-(1H-indol-3-ylmethyl)-2-oxoethyl]-, (2,3-dimethoxyphenyl)methyl ester]
- IC50 (NK2 receptor): 360 nM

Compound: COc1cccc(COC(=O)NC(Cc2c[nH]c3ccccc23)C(=O)NC(C)(Cc2ccccc2)C(O)CCCO)c1OC (single isomer, unassigned) [Compound XXI, Carbamic acid, [2-[[2,5-dihydroxy-1-methyl-1-(phenylmethyl)pentyl]amino]-1-(1H-indol-3-ylmethyl)-2-oxoethyl]-, (2,3-dimethoxyphenyl)methyl ester]
- IC50 (NK2 receptor): 330 nM

Compound: COc1ccccc1CN[C@H]1C2CCN(CC2)[C@H]1C(c1ccccc1)c1ccccc1 [CP-96,345]
- antagonists at the NK1 receptor (NK1 receptor): antagonists at the NK1 receptor

Compound: COc1cccc(COC(=O)N[C@@H](Cc2c[nH]c3ccccc23)C(=O)N[C@@](C)(Cc2ccccc2)C(=O)OCCO)c1OC [Compound IV, L-Phenylalanine, N-[N-[[(2,3-dimethoxyphenyl)methoxy]carbonyl]L-tryptophyl]-α-methyl- , 2-hydroxyethyl ester]
- IC50 (NK2 receptor): 150 nM

Compound: COc1cccc(COC(=O)N[C@@H](Cc2c[nH]c3ccccc23)C(=O)N[C@@](C)(Cc2ccccc2)C(=O)N(C)CCO)c1OC [Compound VII, L-Phenylalaninamide, N-[[(2,3-dimethoxyphenyl)methoxy]-carbonyl]-L-tryptophyl-N-(2-hydroxyethyl)-N,α-dimethyl]
- IC50 (NK2 receptor): > 10000 nM

Compound: COc1cccc(COC(=O)N[C@@H](Cc2c[nH]c3ccccc23)C(=O)N[C@](C)(COCCO)Cc2ccccc2)c1OC [Compound XII, Carbamic acid, [2-[[1-[(2-hydroxyethoxy)methyl]-1-methyl-2-phenylethyl]amino]-1-(1H-indol-3-ylmethyl)-2-oxoethyl]-, (2,3-dimethoxyphenyl)methyl ester, [S-(R*, R*)]-.]
- IC50 (NK2 receptor): 250 nM

Compound: COc1ccccc1CC(=N)N1C[C@@H]2C(=O)CCC(c3ccccc3)(c3ccccc3)[C@@H]2C1 [RP 67580]
- antagonists at the NK1 receptor (NK1 receptor): antagonists at the NK1 receptor

Compound: CC(=O)NC1(c2ccccc2)CCN(CC[C@H](CN(C)C(=O)c2ccccc2)c2ccc(Cl)c(Cl)c2)CC1 [SR 48969]
- affinity and selectivity for NK2 receptors (NK2 receptors): high affinity and selectivity for NK2 receptors

Compound: COc1cccc(COC(=O)N[C@@H](Cc2c[nH]c3ccccc23)C(=O)N[C@@](C)(Cc2ccccc2)C(=O)CCCO)c1OC [XXVI, Carbamic acid, [2-[[5-hydroxy-1-methyl-2-oxo-1-(phenylmethyl)pentyl]amino]-1-(1H-indol-3-ylmethyl)-2-oxoethyl]-, (2,3-dimethoxyphenyl)methyl ester]
- IC50 (NK2 receptor): 22 nM

Compound: substance-P
- affinity for NK1 receptors (NK1 receptor): highest affinity for NK1 receptors
